From patent US20020040027A1, “Method for the prevention of the reinfestation of warm-blooded animals by ectoparasites” (priority 1996, published 2002)

Legend:
[1] = system: cat fleas [Ctenocephalides felis]; test: Flea control by oral administration of the active ingredient to the host animal (cats); assay type: in vivo; conditions: cats infected with 100 cat fleas, treated orally on day 0 with 50 mg/kg of body weight (capsule); after 45 days
Procedure: Flea control by oral administration of the active ingredient to the host animal 20 cats with the proven ability permanently to maintain a flea population are divided into 6 groups: 5 groups each being composed of 3 or 4 animals and a sixth group, which serves as the control group, being composed of 2 animals. Each of the cats is infected with 100 cat fleas [Ctenocephalides felis]. The cats of the 5 groups are treated orally on day 0 with 50 mg of active ingredient per kg of body weight. The active ingredient is administered in the form of a capsule. The control group remains untreated. […] The eggs are counted and placed on a medium suitable for the growth of larvae and incubated. The number of pupae and fully grown fleas that develop is determined.

Amblyomma hebraeum = test: Tick control by subcutaneous administration of the active ingredient to the host animal (chicks); assay type: in vivo; conditions: subcutaneously injected dose of 3 mg/kg of body weight, treated vs untreated chicks; for % reduction nymphs: nymphs moulted from collected larvae; for % reduction larvae: replete larvae
Procedure: Tick control by subcutaneous administration of the active ingredient to the host animal
13 day-old chicks of a fattened breed are infected with about 200 larvae of the tick species Amblyomma hebraeum and placed in pairs in cages. After three days, the chicks are injected subcutaneously with the active ingredient in an aqueous suspension. Within 2 to 6 days of the treatment, i.e. 5 to 9 days after infection, the replete tick larvae fall from the chicks can be collected and counted. The activity of the test compounds is calculated on the basis of the number of replete larvae on treated and untreated chicks in accordance with the formula [formula]
where Ct is the average number of larvae from treated chicks and Cu is the average number of larvae from untreated chicks.
In order to determine this type of activity, the replete larvae are kept, separated into treatment groups, in an incubator until all the larvae collected from untreated chicks have moulted. The activity is calculated using the above mentioned formula, with the average number of nymphs being used instead of the average number of larvae.
Reduction of more than + 80 % can be regarded as systemic action.

Structure (SMILES)	inhibition of the development of fleas [1] [%]	% reduction nymphs (Amblyomma hebraeum) [%]	% reduction larvae (Amblyomma hebraeum) [%]
CC1(C)OCC(COc2ccc(Oc3cc(F)cc(F)c3)cc2)O1 (stereo not shown) [2-dimethyl-4-[4-(3,5-difluorophenoxy)-phenoxymethyl]-1,3-dioxolane]	100		
CC1(C)OCC(COc2ccc(Oc3cccc(F)c3)cc2)O1 (stereo not shown) [2-dimethyl-4-[4-(3-fluorophenoxy)-phenoxymethyl]-1,3-dioxolane]	100		
CC(C)C1OCC(COc2ccc(Oc3cc(F)cc(F)c3)cc2)O1 (stereo not shown) [4-[4-(3,5-difluorophenoxy)-phenoxymethyl]-2-isopropyl-1,3-dioxolane]	100		
CCC1OCC(C)(COc2ccc(Oc3cccc(F)c3)cc2)O1 (stereo not shown) [compound 1, 2-ethyl-4-[4-(3-fluorophenoxy)-phenoxymethyl]-4-methyl-1,3-dioxolane]		83	83
c1ccc(Oc2ccc(OCC3COC(C4CC4)O3)cc2)cc1 (stereo not shown) [compound 2, 2-cyclopropyl-4-[4-(phenoxy)-phenoxymethyl]-1,3-dioxolane]		83	82
CCC1OCC(COc2ccc(Oc3cccc(F)c3)cc2)O1 (stereo not shown) [compound 3, 2-ethyl-4-[4-(3-fluorophenoxy)-phenoxymethyl]-1,3-dioxolane]	100	80	78
